Data from ChEMBL document CHEMBL1137865, “Modeling the binding affinities of beta-secretase inhibitors: application to subsite specificity” (Bioorg Med Chem Lett, 2004).
Starred links: 1 amine or outer side, 2 acyl side, 3 side chain; linkers in the order of their positions; H or OH if unused. Non-standard residues stand in square brackets, D forms with d. Residues, ends and D or L forms follow the SMILES beside them. *: point of attachment. LeuΨ(S-CHOHCH2)Ala = CC(C)C[C@H](N[*:1])[C@@H](O)C[C@@H](C)C(=O)[*:2]; X1 = O=C(O)CC[C@H](N*)C(=O)C[C@@H](Cc1ccccc1)C(=O)O

Each compound was assayed against Beta-secretase 1 (Homo sapiens, UniProt P56817) (assay: Binding affinity against Beta-secretase).
Chain of Beta-secretase 1 (P56817 whole entry): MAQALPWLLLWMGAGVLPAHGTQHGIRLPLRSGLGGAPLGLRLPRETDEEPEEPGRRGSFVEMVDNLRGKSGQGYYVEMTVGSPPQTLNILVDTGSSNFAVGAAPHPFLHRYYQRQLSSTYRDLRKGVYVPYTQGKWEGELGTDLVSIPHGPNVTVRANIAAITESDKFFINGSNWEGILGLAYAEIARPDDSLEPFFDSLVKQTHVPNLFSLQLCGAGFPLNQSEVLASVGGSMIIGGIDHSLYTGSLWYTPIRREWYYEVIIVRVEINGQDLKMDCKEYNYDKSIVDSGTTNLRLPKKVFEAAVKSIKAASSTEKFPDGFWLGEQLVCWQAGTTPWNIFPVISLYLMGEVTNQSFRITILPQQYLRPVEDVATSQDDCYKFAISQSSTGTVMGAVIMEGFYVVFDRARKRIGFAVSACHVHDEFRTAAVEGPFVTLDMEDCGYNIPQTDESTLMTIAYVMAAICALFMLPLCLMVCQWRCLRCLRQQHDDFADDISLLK

Row | Compound | Ki [nM] | IC50 [nM]
1 | CCCN(CCC)C(=O)c1cccc(C(=O)N[C@@H](Cc2cc(F)cc(F)c2)[C@@H](O)C[C@@H](CC)C(=O)NCCCCC(=O)O)c1 | – | 400
2 | CCCN(CCC)C(=O)c1cccc(C(=O)N[C@@H](Cc2cc(F)cc(F)c2)[C@@H](O)C[C@@H](CC)C(=O)N[C@H]2C[C@@H](OC)C[C@@H](OC)C2)c1 | – | 6600
3 | CCCN(CCC)C(=O)c1cccc(C(=O)N[C@@H](Cc2cc(F)cc(F)c2)[C@@H](O)C[C@@H](CC)C(=O)NCCC(=O)O)c1 | – | 2800
4 | CCCN(CCC)C(=O)c1cccc(C(=O)N[C@@H](Cc2cc(F)cc(F)c2)[C@@H](O)C[C@@H](CC)C(=O)NC[C@H]2CC[C@H](C(=O)O)CC2)c1 | – | 50
5 | CCCN(CCC)C(=O)c1cccc(C(=O)N[C@@H](Cc2cc(F)cc(F)c2)[C@@H](O)C[C@@H](CC)C(=O)NCc2ccccc2)c1 | – | 1400

Results, then the compound that gave them:

Row | Ki [nM] | IC50 [nM] | Compound
6 | 1130 | – | CC(C)C[C@H](NCC(=O)[C@H](CS(C)(=O)=O)NC(=O)OC(C)(C)C)C(O)CC(C)C(=O)NC(C(=O)NCc1ccccc1)C(C)C (some centres undefined)
7 | 3130 | – | CC(C)C[C@H](NCC(=O)[C@H](CC(N)=O)NC(=O)OC(C)(C)C)C(O)CC(C)C(=O)NC(C(=O)NCc1ccccc1)C(C)C (some centres undefined)
8 | 22400 | – | CC(C)C[C@H](NCC(=O)[C@H](CC(N)=O)NC(=O)OC(C)(C)C)C(O)CC(C)C(=O)NC(C)C(=O)NCc1ccccc1 (some centres undefined)
9 | 0.32 | – | CC(C)C[C@H](NC(=O)[C@@H](N)CCC(=O)O)C(=O)N[C@@H](CC(=O)O)C(=O)N[C@@H](CC(C)C)[C@@H](O)C[C@@H](C)C(=O)N[C@H](C(=O)N[C@@H](CCC(=O)O)C(=O)C[C@@H](Cc1ccccc1)C(=O)O)C(C)C (H-ELD[LeuΨ(S-CHOHCH2)Ala]V-X1)
